Results taken from patent US10519134B2, “Pyrazole compounds and methods of making and using same” (Lundbeck La Jolla Research Center, Inc., priority 2015, dated 2019).

Legend:
Format in all cases: biochemical
MAGL [1] = target: T1, MAGL (Homo sapiens, UniProt Q99685); assay: In vitro competitive activity-based protein profiling (human), MAGL gel band
T1 construct: Proteomes (human prefrontal cortex or cell membrane fractions); from tissue; host or cells: human prefrontal cortex (or cell membrane fractions)
T1 sequence (Q99685 1-303): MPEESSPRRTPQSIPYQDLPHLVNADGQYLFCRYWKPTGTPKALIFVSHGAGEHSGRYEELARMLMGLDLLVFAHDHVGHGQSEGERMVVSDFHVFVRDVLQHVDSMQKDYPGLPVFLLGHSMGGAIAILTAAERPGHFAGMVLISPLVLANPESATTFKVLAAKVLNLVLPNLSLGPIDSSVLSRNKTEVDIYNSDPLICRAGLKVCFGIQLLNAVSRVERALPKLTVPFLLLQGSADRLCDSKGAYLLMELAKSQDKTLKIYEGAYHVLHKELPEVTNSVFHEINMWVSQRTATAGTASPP
Description: In Vitro Competitive Activity-Based Protein Profiling (Human).
Proteomes (human prefrontal cortex or cell membrane fractions) (50 μL, 1.0-2.0 mg/mL total protein concentration) were preincubated with varying concentrations of inhibitors at 37° C. After 30 min, FP-Rh or JW912 (1.0 μL, 50 μM in DMSO) was added and the mixture was incubated for another 30 min at room temperature. Reactions were quenched with SDS loading buffer (15 μL—4×) and run on SDS-PAGE. Following gel imaging, serine hydrolase activity was determined by measuring fluorescent intensity of gel bands corresponding to MAGL using ImageJ 1.49k software.

FAAH = target: T2, FAAH (Mus musculus, UniProt O08914); assay: In vitro competitive activity-based protein profiling (mouse), FAAH gel band; details: read-out: FAAH % inh. 1 μM
T2 construct: Proteomes (mouse brain membrane fraction or cell lysates); from tissue; host or cells: mouse brain membrane fraction (or cell lysates)
T2 sequence (O08914 1-579): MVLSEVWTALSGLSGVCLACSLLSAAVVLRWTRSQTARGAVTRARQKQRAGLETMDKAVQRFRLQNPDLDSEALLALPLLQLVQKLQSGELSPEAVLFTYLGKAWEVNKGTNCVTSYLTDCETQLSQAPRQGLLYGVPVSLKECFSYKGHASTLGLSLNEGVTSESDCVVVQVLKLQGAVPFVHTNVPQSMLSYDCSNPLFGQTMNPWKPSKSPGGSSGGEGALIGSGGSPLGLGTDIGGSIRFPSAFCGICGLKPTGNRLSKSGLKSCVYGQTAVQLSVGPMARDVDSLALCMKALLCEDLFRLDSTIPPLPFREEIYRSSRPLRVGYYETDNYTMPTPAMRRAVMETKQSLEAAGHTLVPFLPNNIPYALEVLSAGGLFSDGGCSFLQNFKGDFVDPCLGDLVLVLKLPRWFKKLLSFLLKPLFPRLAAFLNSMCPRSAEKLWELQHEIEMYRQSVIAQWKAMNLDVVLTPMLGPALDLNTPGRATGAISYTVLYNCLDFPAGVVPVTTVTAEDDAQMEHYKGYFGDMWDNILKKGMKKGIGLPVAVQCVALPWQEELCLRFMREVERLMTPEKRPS
Summary of the method: (§1)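 Residual enzyme activity is taken from in-gel fluorescence after SDS-PAGE. Proteome from mouse brain membranes or cell lysates (total protein 1.0 mg/mL) sees inhibitor for 30 min, then FP-Rh or HT-01 probe (50 μM DMSO stock) for 30 min, both steps at 37 °C.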

MAGL [2] = target: T3, MAGL (Mus musculus, UniProt O35678); assay: In vitro competitive activity-based protein profiling (mouse), MAGL gel band; details: read-out: MAGL % inh. 1 μM
T3 construct: Proteomes (mouse brain membrane fraction or cell lysates); from tissue; host or cells: mouse brain membrane fraction (or cell lysates)
T3 sequence (O35678 1-303): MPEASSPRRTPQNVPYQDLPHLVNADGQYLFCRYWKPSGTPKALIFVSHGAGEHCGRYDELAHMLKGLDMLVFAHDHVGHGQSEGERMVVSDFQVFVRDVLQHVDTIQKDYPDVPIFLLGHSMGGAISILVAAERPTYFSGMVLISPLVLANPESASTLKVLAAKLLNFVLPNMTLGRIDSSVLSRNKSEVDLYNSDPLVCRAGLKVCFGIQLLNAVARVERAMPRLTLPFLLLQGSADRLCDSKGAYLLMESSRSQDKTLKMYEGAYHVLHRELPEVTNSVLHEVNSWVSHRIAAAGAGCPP
Summary of the method: as §1

IC50 (MAGL [1]) | inhibition at 1 µM (FAAH) | inhibition at 1 µM (MAGL [2]) | SMILES
≤ 100 nM | 0 to 25% | ≥ 75% | CS(=O)(=O)Nc1ccn(C(=O)N2CCN(Cc3ccc(C(F)(F)F)cc3N3CCN(C(N)=O)CC3)CC2)n1 [Example 171, 4-(2-((4-(3-(methylsulfonamido)-1H-pyrazole-1-carbonyl)piperazin-1-yl)methyl)-5-(trifluoromethyl)phenyl)piperazine-1-carboxamide]
≤ 100 nM | 0 to 25% | ≥ 75% | CS(=O)(=O)Nc1ccn(C(=O)N2CCN(Cc3ccc(C(F)(F)F)cc3N3CCN(S(C)(=O)=O)CC3)CC2)n1 [Example 173]
≤ 100 nM | 0 to 25% | ≥ 75% | CC(=O)N1CCN(c2cc(C(F)(F)F)ccc2CN2CCN(C(=O)n3ccc(NS(C)(=O)=O)n3)CC2)CC1 [Example 174, N-(1-(4-(2-(4-acetylpiperazin-1-yl)-4-(trifluoromethyl)benzyl)piperazine-1-carbonyl)-1H-pyrazol-3-yl) methanesulfonamide]
100 to 1000 nM | 0 to 25% | ≥ 75% | CS(=O)(=O)Nc1ccn(C(=O)N2CCN(Cc3ccc(C(F)(F)F)cc3N3CCN(C(=O)N4CCC4)CC3)CC2)n1 [Example 187, N-(1-(4-(2-(4-(azetidine-1-carbonyl)piperazin-1-yl)-4-(trifluoromethyl)benzyl)piperazine-1-carbonyl)-1H-pyrazol-3-yl) methanesulfonamide]
≤ 100 nM | 0 to 25% | ≥ 75% | CS(=O)(=O)Nc1ccn(C(=O)N2CCN(Cc3ccc(C(F)(F)F)cc3N3CCC(C(=O)O)C3)CC2)n1 (stereo not drawn) [Example 190, 1-(2-((4-(3-(methylsulfonamido)-1H-pyrazole-1-carbonyl)piperazin-1-yl)methyl)-5-(trifluoromethyl)phenyl) pyrrolidine-3-carboxylic acid]
≤ 100 nM | 0 to 25% | ≥ 75% | CC1CCCN1c1cc(CN2CCN(C(=O)n3ccc(NS(C)(=O)=O)n3)CC2)cc(C(F)(F)F)c1 (stereo not drawn) [Example 191, N-(1-(4-(3-(2-methylpyrrolidin-1-yl)-5-(trifluoromethyl)benzyl)piperazine-1-carbonyl)-1H-pyrazol-3-yl) methanesulfonamide]
≤ 100 nM | 0 to 25% | ≥ 75% | CS(=O)(=O)Nc1ccn(C(=O)N2CCC3(CCCN3Cc3cc(Cl)cc(N4CCCC4)c3)CC2)n1 [Example 193, N-(1-(1-(3-chloro-5-(pyrrolidin-1-yl)benzyl)-1,8-diazaspiro[4.5]decane-8-carbonyl)-1H-pyrazol-3-yl) methanesulfonamide]
≤ 100 nM | 0 to 25% | ≥ 75% | CS(=O)(=O)Nc1ccn(C(=O)N2CCC3(CCCN3Cc3ccc(C(F)(F)F)cc3Cl)CC2)n1 [Example 197, N-(1-(1-(2-chloro-4-(trifluoromethyl)benzyl)-1,8-diazaspiro[4.5]decane-8-carbonyl)-1H-pyrazol-3-yl) methanesulfonamide]
≤ 100 nM | 25 to 50% | ≥ 75% | CS(=O)(=O)Nc1ccn(C(=O)N2CCC3(CCCN3Cc3cc(Cl)cc(C(F)(F)F)c3)CC2)n1 [Example 198, N-(1-(1-(3-chloro-5-(trifluoromethyl)benzyl)-1,8-diazaspiro[4.5]decane-8-carbonyl)-1H-pyrazol-3-yl) methanesulfonamide]

The next lines start with the compound.

SMILES | IC50 (MAGL [1]) | inhibition at 1 µM (FAAH) | inhibition at 1 µM (MAGL [2])
CS(=O)(=O)Nc1ccn(C(=O)N2CCN(Cc3ccc(N4CCCC4)c(Cl)c3)CC2)n1 [Example 166, N-(1-(4-(3-chloro-4-(pyrrolidin-1-yl)benzyl)piperazine-1-carbonyl)-1H-pyrazol-3-yl) methanesulfonamide] | ≤ 100 nM | 0 to 25% | ≥ 75%
CS(=O)(=O)Nc1ccn(C(=O)N2CCN(Cc3ccc(N4CCOCC4)c(C(F)(F)F)c3)CC2)n1 [Example 167, N-[1-[(4-[[4-(morpholin-4-yl)-3-(trifluoromethyl)phenyl]methyl]piperazin-1-yl)carbonyl]-1H-pyrazol-3-yl] methanesulfonamide] | ≤ 100 nM | 0 to 25% | ≥ 75%
CS(=O)(=O)Nc1ccn(C(=O)N2CCN(Cc3ccc(C(F)(F)F)cc3N3CCN(C4CC4)CC3)CC2)n1 [Example 172, N-(1-(4-(2-(4-cyclopropylpiperazin-1-yl)-4-(trifluoromethyl)benzyl)piperazine-1-carbonyl)-1H-pyrazol-3-yl) methanesulfonamide] | ≤ 100 nM | 0 to 25% | ≥ 75%
CS(=O)(=O)Nc1ccn(C(=O)N2CCC3(CCCN3Cc3ccc(C(F)(F)F)cc3N3CCC(F)CC3)CC2)n1 [Example 178, N-(1-(1-(2-(4-fluoropiperidin-1-yl)-4-(trifluoromethyl)benzyl)-1,8-diazaspiro[4.5]decane-8-carbonyl)-1H-pyrazol-3-yl) methanesulfonamide] | ≤ 100 nM | 0 to 25% | ≥ 75%
CS(=O)(=O)Nc1ccn(C(=O)N2CCN(Cc3cc(C(F)(F)F)ccc3N3CCCC3)CC2)n1 [Example 180, N-(1-(4-(2-(pyrrolidin-1-yl)-5-(trifluoromethyl)benzyl)piperazine-1-carbonyl)-1H-pyrazol-3-yl) methanesulfonamide] | ≤ 100 nM | 0 to 25% | ≥ 75%
CC1CCCN1c1cc(C(F)(F)F)ccc1CN1CCN(C(=O)n2ccc(NS(C)(=O)=O)n2)CC1 (stereo not drawn) [Example 189, N-(1-(4-(2-(2-methylpyrrolidin-1-yl)-4-(trifluoromethyl)benzyl)piperazine-1-carbonyl)-1H-pyrazol-3-yl) methanesulfonamide] | ≤ 100 nM | 0 to 25% | ≥ 75%
CS(=O)(=O)Nc1ccn(C(=O)N2CCN(Cc3cc(N4CCC4)cc(C(F)(F)F)c3)CC2)n1 [Example 192, N-(1-(4-(3-(azetidin-1-yl)-5-(trifluoromethyl)benzyl)piperazine-1-carbonyl)-1H-pyrazol-3-yl) methanesulfonamide] | ≤ 100 nM | 0 to 25% | ≥ 75%
CS(=O)(=O)Nc1ccn(C(=O)N2CCN(Cc3cc(N4CCCC4)ccc3Cl)CC2)n1 [Example 194, N-(1-(4-(2-chloro-5-(pyrrolidin-1-yl)benzyl)piperazine-1-carbonyl)-1H-pyrazol-3-yl) methanesulfonamide] | 100 to 1000 nM | 0 to 25% | ≥ 75%
CS(=O)(=O)Nc1ccn(C(=O)N2CCN(Cc3ccc(C(F)(F)F)cc3N3CCC(F)CC3)CC2)n1 [Example 196, N-(1-(4-(2-(4-fluoropiperidin-1-yl)-4-(trifluoromethyl)benzyl)piperazine-1-carbonyl)-1H-pyrazol-3-yl) methanesulfonamide] | ≤ 100 nM | 0 to 25% | ≥ 75%
CS(=O)(=O)Nc1ccn(C(=O)N2CCN(Cc3ccc(C(F)(F)F)cc3N3CC4COCC4C3)CC2)n1 (stereo not drawn) [Example 205, N-(1-(4-(2-(tetrahydro-1H-furo[3,4-c]pyrrol-5(3H)-yl)-4-(trifluoromethyl)benzyl)piperazine-1-carbonyl)-1H-pyrazol-3-yl) methanesulfonamide] | ≤ 100 nM | 0 to 25% | ≥ 75%
